Values joined by “and” are separate entries in the source; they are usually repeats but may differ in a detail not shown here. Equal entries are not always repeated. “Also recorded” adds a separate entry of the source.
How the values were obtained:
[1] = test system: Lactobacillus acidophilus; assay: Growth of Lactobacillus acidophilus in Acidophilus milk fortified with MSM; type: cell-based
Excerpt: 31, 2013. […] The Acidophilus milk was low fat (Darigold).

[2] = test system: normal flora found in the milks; assay: Growth of non-probiotic microorganisms in Acidophilus milk (standard plate counts); type: cell-based
Procedure: 31, 2013. […] The Acidophilus milk was low fat (Darigold). […] This was performed to look at how MSM would affect the normal flora found in the milks. Day 0 was the day the samples were setup for the start of the study. The Acidophilus plus Bifidus milk started with a higher count at Day 0 than what is typically expected. This caused the end values to be elevated. The Acidophilus milk product at Day 0 was at expected values. The Acidophilus milk maintained adequate growth rates through out the study and were equivalent to typical growth rates seen in milk products.

[3] = test system: Swine-like H1N1 Influenza A virus strain A/California/04/2009; type: cell-based
[4] = test system: Escherichia coli (ATCC strain 8739); assay: E. coli growth profile in sterile and non-sterile MSM in TSB or saline (USP <51> AET basis, MacConkey agar streak); conditions: for Growth profile of E. coli: 5-16% MSM
Procedure: The USP <51> AET is a compendial (United States Pharmacopeia) antimicrobial effectiveness test method for determining if a preservative is effective based upon a verified and validated methodology.
All tubes except the negative controls were spiked with 250 μl of a 1.2×10^8 culture, which yields an initial E. coli population density of 1.2×10^6/mL. Tubes were incubated at 25° C.

[5] = acidophilus milk, […] MSM, hour 24

**Q.** Which “Growth of Lactobacillus acidophilus in Milk fortified with MSM average” value (“Growth … with MSM average” below) ([1]; acidophilus milk, […] MSM, Day 21) does the source give for `CS(C)(=O)=O` [MSM, Methylsulfonylmethane] here?
**A.** The value was 5.465 log.

**Q.** And the “Growth … with MSM average” value ([1]; acidophilus milk, […] MSM, Day 28)?
**A.** The value was 3.325 log.

**Q.** What about the “Growth … with MSM average” value ([1]; acidophilus milk, […] MSM, hour 0) of the same compound?
**A.** Its value is 6.69 log.

**Q.** And the “Growth … with MSM average” value ([1]; acidophilus milk, […] MSM, hour 8)?
**A.** Its value is 9.02 log.

**Q.** What about the “Log Growth of Lactobacillus acidophilus in Milk fortified with MSM” value [1, 5] of the same compound?
**A.** The value was 9.01 log.

**Q.** And the “Growth … with MSM average” value [1, 5]?
**A.** Its value is 9.13 log.

**Q.** What about the “Growth … with MSM average” value ([1]; acidophilus milk, […] MSM, hour 32) of the same compound?
**A.** Its value is 9.09 log.

**Q.** And the “Growth … with MSM average” value ([1]; acidophilus milk, […] MSM, hour 48)?
**A.** Its value is 8.85 log.

**Q.** And the “Growth … with MSM average” value ([1]; acidophilus milk, […] MSM, hour 56)?
**A.** Its value is 8.76 log.

**Q.** And the “Growth … with MSM average” value ([1]; acidophilus milk, […] MSM, hour 72)?
**A.** The value was 8.66 log.

**Q.** And the “Growth … with MSM average” value ([1]; acidophilus milk, […] MSM, hour 80)?
**A.** The value was 9.74 log.

**Q.** What about the “Growth … with MSM average” value ([1]; acidophilus milk, […] MSM, hour 96) of the same compound?
**A.** Its value is 10.25 log.

**Q.** What about the “Growth … with MSM average” value ([1]; acidophilus milk, […] MSM, hour 104) of the same compound?
**A.** The value was 9.63 log.

**Q.** What about the “log increase in growth, hour 0 to hour 8” value ([1]; milk fortified with MSM (all concentrations), minimum) of the same compound?
**A.** The value was ≥ 1.73 log.

**Q.** What about the “increase over Acidophilus milk growth at Day 14” value ([1]; milk fortified with MSM (concentrations not given)) of the same compound?
**A.** Its value is 0.86 logs and 1.3 logs.

**Q.** What about the “growth of normal flora (standard plate counts)” value ([2]; 5.0% MSM, throughout the study) of the same compound?
**A.** The value was “did not allow any significant growth”.

**Q.** What about the “Growth of non-probiotic microorganisms in Acidophilus Milk” value (“Growth of non-probiotic microorganisms” for short) ([2]; A/B milk, […] MSM, Day 0) of the same compound?
**A.** The value was 370 cfu per mL.

**Q.** What about the “Growth of non-probiotic microorganisms” value ([2]; A/B milk, […] MSM, Day 3) of the same compound?
**A.** Its value is 480 cfu per mL.

**Q.** What about the “Growth of non-probiotic microorganisms” value ([2]; A/B milk, […] MSM, Day 7) of the same compound?
**A.** The value was 570 cfu per mL.

**Q.** And the “Growth of non-probiotic microorganisms” value ([2]; A/B milk, […] MSM, Day 14)?
**A.** Its value is 1460 cfu per mL.

**Q.** And the “Growth of non-probiotic microorganisms” value ([2]; A/B milk, […] MSM, Day 21)?
**A.** The value was 3500 cfu per mL.

**Q.** What about the “Growth of non-probiotic microorganisms” value ([2]; A/B milk, […] MSM, Day 28) of the same compound?
**A.** Its value is 110000 cfu per mL.

**Q.** And the “Growth of non-probiotic microorganisms” value ([2]; acidophilus milk, 0.50% MSM, Day 0)?
**A.** The value was 20 cfu per mL and 30 cfu per mL.

**Q.** What about the “Growth of non-probiotic microorganisms” value ([2]; acidophilus milk, 0.50% MSM, Day 3) of the same compound?
**A.** The value was 10 cfu per mL.

**Q.** What about the “Growth of non-probiotic microorganisms” value ([2]; acidophilus milk, 0.50% MSM, Day 7) of the same compound?
**A.** The value was 10 cfu per mL.

**Q.** What about the “Growth of non-probiotic microorganisms” value ([2]; acidophilus milk, 0.50% MSM, Day 14) of the same compound?
**A.** The value was 20 cfu per mL.

**Q.** And the “Growth of non-probiotic microorganisms” value ([2]; acidophilus milk, 0.50% MSM, Day 21)?
**A.** Its value is 20 cfu per mL and 40 cfu per mL.

**Q.** What about the “Growth of non-probiotic microorganisms” value ([2]; acidophilus milk, 5% MSM, Day 0) of the same compound?
**A.** The value was 10 cfu per mL and 20 cfu per mL.

**Q.** And the “Growth of non-probiotic microorganisms” value ([2]; acidophilus milk, 5% MSM, Day 3)?
**A.** The value was 10 cfu per mL.

**Q.** What about the “Growth of non-probiotic microorganisms” value ([2]; acidophilus milk, 5% MSM, Day 7) of the same compound?
**A.** Its value is 10 cfu per mL and 20 cfu per mL.

**Q.** What about the “Growth of non-probiotic microorganisms” value ([2]; acidophilus milk, 5% MSM, Day 14) of the same compound?
**A.** The value was 20 cfu per mL and 10 cfu per mL.

**Q.** What about the “Growth of non-probiotic microorganisms” value ([2]; acidophilus milk, 5% MSM, Day 21) of the same compound?
**A.** The value was 20 cfu per mL and 10 cfu per mL.

**Q.** What about the “Growth of non-probiotic microorganisms” value ([2]; acidophilus milk, 5% MSM, Day 28) of the same compound?
**A.** The value was 10 cfu per mL.

**Q.** And the “Growth of non-probiotic microorganisms” value ([2]; acidophilus milk, […] MSM, Day 0)?
**A.** The value was 10 cfu per mL.

**Q.** And the “Growth of non-probiotic microorganisms” value ([2]; acidophilus milk, […] MSM, Day 14)?
**A.** The value was <10 cfu per mL.

**Q.** What about the “Average Log Stimulation” value [3] of the same compound?
**A.** Its value is 0.17 log10.

**Q.** What about the “Average Percent Stimulation” value [3] of the same compound?
**A.** Its value is 32.39%.

**Q.** And the “Average TCID50” value [3]?
**A.** The value was 3.67 log10 and 4.42 log10 and 4.67 log10 and 5.00 log10 and 4.58 log10 and 4.17 log10.

**Q.** And the “Log Stimulation” value [3]?
**A.** Its value is 0.17 log10.

**Q.** And the “Percent Stimulation” value [3]?
**A.** The value was 32.39%.

**Q.** What about the TCID50 [3] of the same compound?
**A.** Its TCID50 is 3.75 log10 and 3.50 log10 and 4.00 log10 and 4.50 log10 and 4.25 log10 and 4.75 log10 and 5.00 log10.

**Q.** What about the “log10 reduction” value [3] of the same compound?
**A.** Its value is 0.66 log10 and 0.41 log10.

**Q.** What about the “reduction of virus population” value [3] of the same compound?
**A.** Its value is “more than 1.0 log10”.

**Q.** And the “visual signs of growth in culture tubes” value ([4]; 5-9% MSM in TSB/TSBA media, 24 hours)?
**A.** Its value is “visible signs of growth”.

**Q.** What about the “visual signs of growth in culture tubes” value ([4]; 5-10% MSM in TSB/TSBA, 48 hours, 72 hours) of the same compound?
**A.** Its value is “signs of heavy growth”.

**Q.** What about the “visual signs of growth in culture tubes” value ([4]; 10-16% MSM in TSB/TSBA media, 24 hours) of the same compound?
**A.** The value was “no signs of growth”.

**Q.** And the “visual signs of growth in culture tubes” value ([4]; 11% MSM in TSB/TSBA, 48 hours, 72 hours)?
**A.** The value was “Apparent growth”.

**Q.** What about the “visual signs of growth in culture tubes” value ([4]; 12-15% MSM in TSB/TSBA, 48 hours, 72 hours) of the same compound?
**A.** Its value is “little to no observable signs of growth”.

**Q.** What about the “visual signs of growth in culture tubes” value ([4]; MSM in saline tubes, 24 hours) of the same compound?
**A.** The value was “did not show any signs of growth”.

**Q.** What about the “Growth profile of E. coli” value ([4]; after 24 hours, NS (sterile saline added to non-sterile MSM)) of the same compound?
**A.** The value was “Heavy; also recorded: Moderate”.

**Q.** And the “Growth profile of E. coli” value ([4]; after 24 hours, NSA (saline + MSM, then sterilized))?
**A.** Its value is “Heavy; also recorded: Moderate”.

**Q.** And the “Growth profile of E. coli” value ([4]; after 24 hours, TSB (sterile TSB added to non-sterile MSM))?
**A.** The value was “Heavy and Moderate and Few”.

**Q.** And the “Growth profile of E. coli” value ([4]; after 24 hours, TSBA (TSB + MSM, then sterilized))?
**A.** The value was “Heavy and Moderate and Few”.

**Q.** What about the “Growth profile of E. coli” value ([4]; after 48 hours, NS) of the same compound?
**A.** The value was “Heavy; also recorded: Moderate”.

**Q.** What about the “Growth profile of E. coli” value ([4]; after 48 hours, NSA) of the same compound?
**A.** The value was “Heavy; also recorded: Moderate”.

**Q.** And the “Growth profile of E. coli” value ([4]; after 48 hours, TSB)?
**A.** The value was “Heavy and Moderate and Few”.

**Q.** What about the “Growth profile of E. coli” value ([4]; after 48 hours, TSBA) of the same compound?
**A.** The value was “Heavy and Moderate and Few”.

**Q.** What about the “Growth profile of E. coli” value ([4]; after 72 hours, NS) of the same compound?
**A.** Its value is “Heavy; also recorded: Moderate”.

**Q.** And the “Growth profile of E. coli” value ([4]; after 72 hours, NSA)?
**A.** The value was “Heavy; also recorded: Moderate”.

**Q.** What about the “Growth profile of E. coli” value ([4]; after 72 hours, TSB) of the same compound?
**A.** Its value is “Heavy and Moderate and Few”.

**Q.** And the “Growth profile of E. coli” value ([4]; after 72 hours, TSBA)?
**A.** The value was “Heavy and Moderate and Few”.

— patent US9487749B2 (priority 2009, dated 2016)
